{
  "source": "paper PMC11241255",
  "about": "(International Journal of Molecular Sciences, 2024)",
  "key": {"[1]": {"test_system": "rodent models", "details": "cited from earlier work"}, "[2]": {"target": "T1, Aβ1–42 (Homo sapiens, UniProt P05067)", "T1 construct": "Aβ1–42 for MDS (GenicBio Inc., Shanghai, China); purchased GenicBio Inc", "T1 sequence (P05067 672-713)": "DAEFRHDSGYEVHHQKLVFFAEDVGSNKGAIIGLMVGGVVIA", "experiment": "Anti-Aβ1–42 fibrilization, ThT assay", "type": "biochemical", "details": "samples 500 μg/mL; 37 °C 24 h", "protocol": "The anti-Aβ1–42 fibrilization activity of the extracts/bioactives was monitored using a ThT assay. The samples were incubated in the presence/absence of Aβ1–42 at 37 °C for 24 h. The samples were incubated with 100 μM ThT at 37 °C for 15 min. The fluorescence was monitored at Ex 450 nm/Ems 490 nm (Synergy-H1 BioTek, Agilent, Santa Clara, CA, USA). For the control, phenol red (50 μM) was used. The Aβ1–42 aggregation inhibition was calculated as follows:Percent Inhibition (%) = [(1 − Fi/Fc) × 100] where Fi and Fc are the fluorescence intensity with and without the inhibitors, respectively."}, "[3]": {"target": "T1, Aβ1–42", "experiment": "Anti-Aβ1–42 oligomerization, multimeric detection system (MDS)", "type": "biochemical", "details": "vs negative control (Buffer + Aβ)", "protocol": "The anti-Aβ1–42 oligomerization and fibrilization activity of the extracts/bioactives were measured by Multiple Detection System (MDS) and ThT assay, respectively. Briefly, the extracts and phytocompounds were incubated with Aβ1–42 at RT for different time points (0 h, 2 h, and 4 h). The samples were incubated on an anti-β-amyloid pre-coated plate for 1 h at RT. An HRP-conjugated W0–2 monoclonal antibody was added, and the plate was kept at RT for 30 min. Later, TMB was added, and the plate was incubated for 15 min at RT. The absorbance was read at 450 nm using a microplate reader (Victor3, PerkinElmer, Shelton, CT, USA)"}, "[4]": {"test_system": "AChE", "details": "cited from earlier work"}, "[5]": {"test_system": "H2O2-induced ROS production in SH-SY5Y cells", "experiment": "Intracellular ROS measurement (H2DCFDA)", "type": "cell-based, Human", "details": "12 h pre-treatment, H2O2 100 µM 2 h, H2O2 alone 156.96 ± 5.07%", "protocol": "(§1) Human neuroblastoma SH-SY5Y cells (ATCC CRL-2266, Manassas, VA, USA) were maintained in Dulbecco’s modified Eagle’s medium (DMEM, Gibco) supplemented with 10% fetal bovine serum (FBS), 1% kanamycin, and 1% penicillin (Thermo Fisher Scientific, Waltham, MA, USA) at 37 °C with 5% CO2, and a 95% humidified atmosphere in the incubator. The experiments were executed at 80–90% cell confluency.\nThe cells (1 × 10^4 cells/well) were seeded in a 96-well sterile plate, after which they were pre-treated with the extract for 12 h. […] The fluorescence intensity (Ex 495 nm, Ems 520 nm) was measured by a microplate reader (Synergy-H1 BioTek, Agilent, USA). The ROS was calculated as a percentage of the untreated control cells (100%) in triplicate measurements."}, "[6]": {"experiment": "Ferric reducing antioxidant potential (FRAP) assay", "details": "1 mg/mL", "protocol": "FRAP assay was used to assess the […] of the extracts and phytocompounds with slight modification in a previously reported method. For the assay, the extract (1 mg/mL) was incubated with 200 μL of FRAP reagent, and the reduction of ferric tripyridyltriazine was monitored at 593 nm (Multimode reader, Synergy-H1 BioTek, Agilent, USA). Ascorbic acid (2 μg/mL) was used as a positive control. FRAP values of the extracts and phytocompounds were calculated from the standard curve of FeSO4 (15–250 μM) and expressed as μM Fe^2+/g."}, "[7]": {"test_system": "H2O2-induced neuroblastoma SH-SY5Y cells", "experiment": "Neuroprotection assay against H2O2-induced oxidative stress (WST-8)", "type": "cell-based, Human", "details": "Homo sapiens, SH-SY5Y; 30 µg/mL; 12 h pre-treatment, 1 h H2O2 100 µM; read-out: % cell viability, H2O2-induced SH-SY5Y", "protocol": "as §1\nThe neuroprotective effect of extracts and phytocompounds on H2O2-induced oxidative stress in SH-SY5Y by a previously described method. The cells (1 × 10^4 cells/well) were seeded in a 96-well sterile plate. After stabilization, the cells were pre-treated with the extracts and phytocompounds for 24 h. The extracts and phytocompounds were removed and treated with H2O2 (100 μM) for 6 h. A solvent control, H2O2 alone, and extract alone treatments were also included. After incubation, the % cell viability was measured using WST-8 reagent in triplicate experiments."}, "[8]": {"test_system": "SH-SY5Y neuroblastoma cell line", "experiment": "Cell viability / cytotoxicity assay (WST-8)", "type": "cell-based, Human", "protocol": "as §1\nThe cells were seeded (1 × 10^4 cells/well) in 96-well sterile plates and pre-treated with various extract concentrations (1, 10, 30 µg/mL) for 24 h. The extracts and phytocompounds were removed and incubated for 2 h with 10% WST-8 reagent (Roche, Grenzach-Wyhlen, Germany) as described previously. The absorbance was determined at 450 nm in a multi-plate reader (Synergy-H1 BioTek, Agilent, USA). The percent cytotoxicity was calculated as:Cytotoxicity % = (Ac − At)/(Ac) × 100 where Ac = absorbance of the control cells, At = absorbance of the treated cells.\nThe plot of percent cytotoxicity versus sample concentration was used to calculate the extract concentration that killed 50% of the cells (IC50)."}, "[9]": {"target": "T2, Acetylcholinesterase (Electrophorus electricus, Type VI-S) (Electrophorus electricus, UniProt O42275)", "T2 construct": "purchased Sigma-Aldrich", "T2 sequence (O42275 24-633)": "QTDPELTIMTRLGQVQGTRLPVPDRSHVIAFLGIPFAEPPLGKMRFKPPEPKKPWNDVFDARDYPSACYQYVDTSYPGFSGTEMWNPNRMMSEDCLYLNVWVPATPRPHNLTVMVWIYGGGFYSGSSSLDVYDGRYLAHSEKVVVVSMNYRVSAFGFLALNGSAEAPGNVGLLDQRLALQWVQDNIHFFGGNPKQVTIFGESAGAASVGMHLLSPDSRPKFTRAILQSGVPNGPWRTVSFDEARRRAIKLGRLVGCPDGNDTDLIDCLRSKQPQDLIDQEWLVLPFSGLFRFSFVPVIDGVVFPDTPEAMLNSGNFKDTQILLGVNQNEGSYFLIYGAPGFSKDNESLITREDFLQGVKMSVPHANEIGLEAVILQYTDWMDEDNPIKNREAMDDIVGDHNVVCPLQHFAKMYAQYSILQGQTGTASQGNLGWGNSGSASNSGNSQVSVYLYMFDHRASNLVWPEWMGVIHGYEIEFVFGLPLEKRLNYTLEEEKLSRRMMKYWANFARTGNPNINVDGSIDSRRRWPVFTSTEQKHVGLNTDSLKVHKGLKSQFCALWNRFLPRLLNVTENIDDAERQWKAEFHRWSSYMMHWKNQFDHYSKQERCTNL", "experiment": "biochemical", "details": "for Type of Inhibition of AChE: Lineweaver–Burk plot, 100 and 200 μg/mL; for Vmax of AChE in presence of inhibitor: no inhibitor 2.975; for IC50: read-out: AChE IC50 (converted)", "experimental": "The AChE activity was examined by slight modifications [23] in Ellman’s method [76]. The extracts and phytocompounds were incubated for 15 min with AChE and 10 mM ATCC at 37 °C. The reaction was stopped by DTNB (15 mM), and the absorbance was measured at 412 nm (Multi-mode plate reader, Synergy-H1 BioTek, Agilent, USA). […] The percent inhibition was calculated as:Percent Inhibition (I%) = [(Ao − Ac) − (Bi − Bc)]/(Ao − Ac) × 100 where Ao is the absorbance without inhibitor; Ac is the negative control without inhibitor; Bi is the absorbance with inhibitor; and Bc is the negative control with inhibitor. The IC50 values were calculated using GraphPad Prism 10. Lineweaver–Burk plot was used to prepare the inhibition curves (with and without extract/phytocompound) using GraphPad Prism 10. The kinetic parameters were calculated from a non-linear fit (Michaelis–Menten equation) in GraphPad Prism 10.\nStatistical analysis was established by a one-way ANOVA followed by Dunnett’s post hoc test. Data are registered as the mean ± SEM of three sets of experiments. […] The IC50 values were determined using non-linear regression. The Vmax and Km were calculated from a Michaelis–Menten plot drawn using a non-linear plot (GraphPad Prism 10). Lineweaver–Burk plots were drawn using linear regression analysis (GraphPad Prism 10). The Ki values were calculated from the formula IC50 = Ki (1 + [S]/Km)."}, "[10]": {"details": "cited from earlier work"}},
  "note": "Several values for one entry are separate records, joined by “and”; a condition that tells them apart may be missing. Equal entries are not always repeated. Where two headings read alike, the source gives them in different places.",
  "data": [
    {"smiles": "C=C(C)[C@H]1CC=C(C)C(=O)C1", "note": "[carvone, D-carvone]", "values": [
      {"measurement": "LD50", "setting": "[1]", "result": 1640, "unit": "mg/kg"},
      {"measurement": "Aβ fibrilization inhibition (ThT)", "setting": "[2]", "result": "42.37 ± 0.76", "unit": "%"},
      {"measurement": "Aβ oligomerization reduction (relative amount of Aβ oligomers)", "setting": "[3]; 2 h incubation", "result": "statistically significant"},
      {"measurement": "Aβ oligomerization reduction (relative amount of Aβ oligomers)", "setting": "[3]; 4 h incubation", "result": "statistically significant"},
      {"measurement": "AChE inhibition", "setting": "[4]; at 1 mg/mL", "result": 23.6, "unit": "%"},
      {"measurement": "AChE IC50", "setting": "[4]", "result": 835.2, "unit": "µg/mL"},
      {"measurement": "IC50", "setting": "[4]", "result": 5560, "unit": "µM"},
      {"measurement": "Ki", "setting": "[4]; ref Grundy et al. 51", "result": 680, "unit": "µM"},
      {"measurement": "ROS level (% of untreated cells)", "setting": "[5]; 1 µg/mL", "result": "122.82 ± 6.63", "unit": "%"},
      {"measurement": "ROS level (% of untreated cells)", "setting": "[5]; 10 µg/mL", "result": "110.70 ± 4.90", "unit": "%"},
      {"measurement": "ROS level (% of untreated cells)", "setting": "[5]; 30 µg/mL", "result": "107.11 ± 8.34", "unit": "%"},
      {"measurement": "FRAP value", "setting": "[6]", "result": "43.25 ± 2.50", "unit": "µM Fe^2+/g"},
      {"measurement": "viability at 30 µg/mL", "setting": "[7]", "result": "70.5 ± 1.67", "unit": "%"},
      {"measurement": "Cytotoxicity (cell viability) in SH-SY5Y", "setting": "[8]", "result": "No significant difference"},
      {"measurement": "Ki", "setting": "[9]; Ki", "result": 1800, "unit": "µM"},
      {"measurement": "Ki", "setting": "[9]; Ki (inhibitor constant), AChE", "result": "1800 µM and 1790 µM"},
      {"measurement": "Type of Inhibition of AChE", "setting": "[9]", "result": "competitive inhibition"},
      {"measurement": "Type of Inhibition of AChE", "setting": "[9]; listed as Carvone", "result": "Competitive"},
      {"measurement": "Vmax of AChE in presence of inhibitor", "setting": "[9]; inhibitor 100 μg/mL", "result": 2.900, "unit": "µmol/min/mg"},
      {"measurement": "Vmax of AChE in presence of inhibitor", "setting": "[9]; inhibitor 200 μg/mL", "result": 3.141, "unit": "µmol/min/mg"},
      {"measurement": "IC50", "setting": "[9]; mean of three experiments ± SEM", "result": 1840, "unit": "µM"},
      {"measurement": "IC50", "setting": "[9]; molar equivalent of the μg/mL value", "result": 1830, "unit": "µM"},
      {"measurement": "BBB permeability", "setting": "[10]", "result": "can cross BBB"}
    ]}
  ]
}
